Like-named read-outs stand apart in the source and are kept apart here.
Assays:
VMAT2 = biological target: T1, VMAT2 (Rattus norvegicus, UniProt Q01827); assay: [3H]Dopamine ([3H]DA) uptake assay, vesicular preparation; type: biochemical
T1 construct: from tissue; host or cells: rat striatum, isolated synaptic vesicles

[1] = Microsomal assays, rat liver microsomes; conditions: for Microsomal stability assays: Species/Half-life (hr) Rat: rat liver microsomes; for CLint scaled at 0.08 µM: female, Sprague-Dawley, rat, pH 7.4
Procedure: Each plate holds triplicate samples of two controls (0.4 mM) and up to 14 compounds (0.08 mM) in rat and human liver microsomes. Aliquots of each well of the plate (175 μl of each well) were transferred from the master plate into 5 assay plates. […] NADPH regenerating system solution A (6.05 ml, Fisher Scientific, #NC9255727) was combined with NADPH regenerating system solution B (1.21 ml, Fisher Scientific, #NC9016235) in potassium phosphate buffer (15.8 ml, 0.1 M, pH 7.4, 37° C.). The resulting NADPH solution (43.8 μl) was added to each well of all the 96-well assay plates and mixed with pipette briefly making the final protein and compound concentrations respectively: 0.5 mg/ml, 0.08 μM (0.4 μM for controls). Plates were sealed, and all plates except the 0-hr plate were incubated at 37° C., shaken at a speed of 60 rpm. A single assay plate was tested at each time point: 0.5 hr, 1 hr, 2 hr, and 4 hr. At each time point, 437.5 μL of pre-cooled internal standard was added each well of the plate to quench the reaction. […] 120 μl supernatant was transferred to a 96-well plate, centrifuged again and analyzed by UPLC-MS (Waters Inc., Milford, MA). The compounds and internal standard were detected by selected ion recording (SIR).
The amount of material was measured as a ratio of peak area to the internal standard and graphed. Using the slope from the initial linear portion of this curve, the degradation rate constant is calculated using equation [1]. The rate constant was then used to calculate the compounds half-life in plasma using equation [2].

hERG channel = biological target: T2, hERG channel (Homo sapiens, UniProt Q12809); assay: [3H]Dofetilide binding assay, HEK-293 cell membrane preparation; conditions: hERG Binding: Mean Ki (nM)
T2 construct: purchased; host or cells: HEK-293 cells stably expressing hERG (membranes)
Procedure: Membranes were suspended in assay buffer (50 mM Tris, 10 mM KCl, 1 mM MgCl2, pH 7.4) prior to the experiment. […] Nonspecific binding was determined in the presence of amitriptyline (1 mM). Samples were incubated for 1 hr. at 24° C., followed by rapid filtration.

[2] = biological target: dopamine transporter (DAT) (Rattus norvegicus, UniProt P23977); assay: [3H]DA uptake assay, synaptosomal preparation
Procedure: [^3H]DA and [3H]5-HT uptake into striatal synaptosomes was determined to evaluate compound inhibition of the dopamine transporter (DAT) and the serotonin transporter (SERT), respectively. […] Assays were performed in duplicate in a total volume of 500 μL (for DAT assays) or 250 μL (for SERT assays). Aliquots of the synaptosomal suspension (25 μL for DAT, 50 μL for SERT) were added to tubes containing assay buffer and various concentrations of analog (1 nM-100 μM), and incubated at 34° C. for 5 min. Nonspecific uptake was determined in the presence of nomifensine (10 μM) for DAT assays or fluoxetine (10 μM) for SERT assays. […] Samples were placed on ice, and 50 μL of 0.1 μM [^3H]DA (for DAT assays) or 25 μL of 0.1 μM [^3H]5-HT (for SERT assays) was added to each tube, and incubated for 10 min at 34° C. Reactions were terminated by addition of 3 mL of ice-cold assay buffer and subsequent filtration and radioactivity retained by the filters was determined by liquid scintillation spectrometry (Tri-Carb 2100TR liquid scintillation analyzer; PerkinElmer Life and Analytical Sciences, Boston, MA).

[3] = [3H]dofetilide binding, HEK-293 membranes, mean of n>=3 unless N given
[4] = [3H]DA uptake, rat vesicular preparation, mean of n>=3 unless N given, read-out: VMAT2 (rat) Inhibition: Mean Ki
[5] = Table 4, mean, minimally n = 3, read-out: VMAT2 (rat) Inhibition: Mean Ki

T2 sequence (Q12809 whole entry): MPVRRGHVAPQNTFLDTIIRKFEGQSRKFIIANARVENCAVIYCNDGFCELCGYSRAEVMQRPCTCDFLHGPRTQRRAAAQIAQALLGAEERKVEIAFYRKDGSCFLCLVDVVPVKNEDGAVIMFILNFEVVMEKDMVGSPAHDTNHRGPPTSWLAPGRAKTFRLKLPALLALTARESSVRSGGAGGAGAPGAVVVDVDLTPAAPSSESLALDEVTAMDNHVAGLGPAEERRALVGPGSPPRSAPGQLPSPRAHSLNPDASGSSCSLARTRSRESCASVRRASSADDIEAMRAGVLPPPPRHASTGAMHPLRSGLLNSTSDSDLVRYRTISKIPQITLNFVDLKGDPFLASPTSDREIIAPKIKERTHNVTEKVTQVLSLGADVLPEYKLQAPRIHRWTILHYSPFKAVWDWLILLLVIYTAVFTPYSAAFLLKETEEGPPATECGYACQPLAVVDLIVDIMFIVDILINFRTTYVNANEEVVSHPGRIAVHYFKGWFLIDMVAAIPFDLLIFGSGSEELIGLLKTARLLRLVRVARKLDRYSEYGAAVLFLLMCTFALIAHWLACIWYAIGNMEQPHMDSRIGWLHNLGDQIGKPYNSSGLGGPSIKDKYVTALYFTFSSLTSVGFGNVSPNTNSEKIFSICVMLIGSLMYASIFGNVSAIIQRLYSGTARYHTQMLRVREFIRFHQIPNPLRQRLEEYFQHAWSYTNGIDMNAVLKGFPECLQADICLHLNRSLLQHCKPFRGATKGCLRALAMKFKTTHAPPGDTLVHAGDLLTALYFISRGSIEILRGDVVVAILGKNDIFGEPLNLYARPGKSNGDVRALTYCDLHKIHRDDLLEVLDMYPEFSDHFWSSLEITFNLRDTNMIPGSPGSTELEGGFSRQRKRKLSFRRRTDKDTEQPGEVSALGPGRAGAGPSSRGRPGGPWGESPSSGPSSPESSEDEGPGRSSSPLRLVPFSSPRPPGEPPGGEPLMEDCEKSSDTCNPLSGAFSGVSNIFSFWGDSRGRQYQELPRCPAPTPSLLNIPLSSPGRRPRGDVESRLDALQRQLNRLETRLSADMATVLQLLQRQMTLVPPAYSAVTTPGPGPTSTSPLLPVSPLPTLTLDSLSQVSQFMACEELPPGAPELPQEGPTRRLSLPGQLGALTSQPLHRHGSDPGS
T1 sequence (Q01827 whole entry): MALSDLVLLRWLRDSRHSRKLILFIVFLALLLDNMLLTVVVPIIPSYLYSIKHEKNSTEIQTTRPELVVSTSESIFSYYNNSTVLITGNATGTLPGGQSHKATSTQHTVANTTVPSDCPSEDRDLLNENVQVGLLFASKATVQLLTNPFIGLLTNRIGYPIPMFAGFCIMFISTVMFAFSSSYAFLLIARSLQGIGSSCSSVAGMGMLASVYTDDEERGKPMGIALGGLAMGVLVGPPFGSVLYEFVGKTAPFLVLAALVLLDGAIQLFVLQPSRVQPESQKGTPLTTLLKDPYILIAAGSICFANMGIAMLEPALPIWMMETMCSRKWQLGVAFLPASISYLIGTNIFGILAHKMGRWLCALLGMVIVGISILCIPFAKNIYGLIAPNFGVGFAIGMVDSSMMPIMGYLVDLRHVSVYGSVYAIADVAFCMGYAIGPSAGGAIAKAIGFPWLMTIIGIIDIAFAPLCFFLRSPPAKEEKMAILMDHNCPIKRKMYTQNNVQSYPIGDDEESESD
Sequence of dopamine transporter (DAT) (P23977 whole entry): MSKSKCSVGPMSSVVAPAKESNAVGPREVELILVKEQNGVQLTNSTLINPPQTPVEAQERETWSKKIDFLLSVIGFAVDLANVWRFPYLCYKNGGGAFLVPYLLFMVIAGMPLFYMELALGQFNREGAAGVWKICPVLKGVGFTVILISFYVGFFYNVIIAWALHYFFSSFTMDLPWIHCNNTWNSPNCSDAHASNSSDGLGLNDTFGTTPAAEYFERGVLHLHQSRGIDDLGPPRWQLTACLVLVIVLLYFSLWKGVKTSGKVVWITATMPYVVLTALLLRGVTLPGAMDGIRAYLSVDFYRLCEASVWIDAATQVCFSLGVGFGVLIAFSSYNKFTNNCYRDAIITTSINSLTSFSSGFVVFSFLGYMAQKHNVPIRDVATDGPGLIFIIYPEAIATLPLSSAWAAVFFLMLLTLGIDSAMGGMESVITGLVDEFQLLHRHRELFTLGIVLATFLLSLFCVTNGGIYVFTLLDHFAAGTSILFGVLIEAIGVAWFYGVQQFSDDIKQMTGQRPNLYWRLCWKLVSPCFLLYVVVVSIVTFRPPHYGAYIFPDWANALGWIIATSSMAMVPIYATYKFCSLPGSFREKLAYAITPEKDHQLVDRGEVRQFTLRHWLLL

| SMILES | Ki (VMAT2) | Ki (hERG channel; [3]) | other results |
| --- | --- | --- | --- |
| CC(Cc1ccccc1)ONCCc1ccccc1 (racemic) [Compound 295] | 41300 nM | – | – |
| CC(Cc1ccc(F)cc1)NCCCc1ccc2[nH]ccc2c1 (stereo not shown) [Compound 56] | – | 1260 nM | Microsomal stability assays: Species/Half-life (hr) Rat [1]: 0.1 h |
| CC(Cc1ccc(NC=O)cc1)NCCCc1ccc(F)cc1 (stereo not shown) [Compound 88] | 12 nM | – | – |
| CC(Cc1ccc(F)cc1)NCCCc1c[nH]c2ccccc12 (stereo not shown) [Compound 91] | – | – | Microsomal stability assays: Species/Half-life (hr) Rat [1]: 0.1 h |
| FCC(Cc1ccccc1)NCCCc1ccccc1 (stereo not shown) [Compound 98] | – | – | Microsomal stability assays: Species/Half-life (hr) Rat [1]: 0.1 h |
| FCC(Cc1ccccc1)NCCCc1ccc(F)cc1 (stereo not shown) [Compound 101] | – | – | Ki (VMAT2; [4]): 17 nM |
| CC(Cc1ccc([N+](=O)[O-])cc1)NCCCc1ccc(Br)cc1 (stereo not shown) [Compound 121] | – | – | Microsomal stability assays: Species/Half-life (hr) Rat [1]: 0.1 h |
| CC(Cc1ccc(F)cc1)NCCCc1ccccc1 (stereo not shown) [Compound 126] | – | – | Microsomal stability assays: Species/Half-life (hr) Rat [1]: 0.1 h |
| CC(C)C(Cc1ccc(F)cc1)NCCCc1ccccc1 (stereo not shown) [Compound 136] | 460 nM | – | – |
| CC(C)C(Cc1ccc(F)cc1)NCCCc1ccc(Br)cc1 (stereo not shown) [Compound 140] | – | – | Microsomal stability assays: Species/Half-life (hr) Rat [1]: 0.1 h |
| CC(Cc1ccc(F)cc1)NCCCc1ccc(N(C)C)cc1 (stereo not shown) [Compound 156] | – | 49000 nM | – |
| COc1ccc(CCCNC(C)Cc2ccncc2)cc1 (stereo not shown) [Compound 172] | – | – | Microsomal stability assays: Species/Half-life (hr) Rat [1]: 0.1 h |
| CC(Cc1ccc(F)cc1)NCCCc1ccc(Cl)cc1 (stereo not shown) [Compound 188] | – | 500 nM | – |
| CC(Cc1ccc(F)c(F)c1)NCCCc1ccc2nccnc2c1 (stereo not shown) [Compound 232] | 52 nM | 3300 nM | CLint scaled at 0.08 µM [1]: 159 mL/min/kg; Ki (hERG channel; Table 4, mean, minimally n = 3): 2590 nM; Ki [2]: 3580 nM |
| CC(Cc1ccc(F)c(F)c1)NCCCc1ccc2cn[nH]c2c1 (stereo not shown) [Compound 233] | 33 nM | 483 nM | – |
| CC(Cc1ccc(F)c(F)c1)NCCCc1ccc2[nH]ncc2c1 (stereo not shown) [Compound 234] | 54 nM | 1020 nM | CLint scaled at 0.08 µM [1]: 114 mL/min/kg; Ki (hERG channel; Table 4, mean, minimally n = 3): 1020 nM; Ki [2]: 703 nM |
| CC(Cc1ccc(F)c(F)c1)NCCCc1cccc(S(N)(=O)=O)c1 (stereo not shown) [Compound 236] | 99 nM | 2010 nM | – |
| CC(Cc1ccc(F)c(F)c1)NCCCc1ccccc1N (stereo not shown) [Compound 238] | 220 nM | 3250 nM | – |
| CC(Cc1ccc(Br)cc1)NCCCc1ccc(N)cc1 (stereo not shown) [Compound 240] | 48 nM | 1130 nM | – |
| CC(Cc1ccc(F)cc1)NCCCc1cccc(N)c1 (stereo not shown) [Compound 241] | 106 nM | 6390 nM | – |
| CC(Cc1ccc(F)cc1)NCCCc1ccc(Cl)c(N)c1 (stereo not shown) [Compound 242] | 38 nM | 1440 nM | – |
| CC(Cc1ccc(F)c(F)c1)NCCCc1ccc(-c2ccnn2C)cc1 (stereo not shown) [Compound 244] | 118 nM | 1030 nM | – |
| CC(Cc1ccc(F)c(F)c1)NCCCc1ccccc1-c1ccnn1C (stereo not shown) [Compound 245] | 136 nM | 2240 nM | – |
| CC(Cc1c[nH]c2ccccc12)NCCCc1ccc(F)cc1 (stereo not shown) [Compound 246] | 66 nM | 731 nM | – |

| SMILES | Ki (VMAT2) | Ki (hERG channel; [3]) | other results |
| --- | --- | --- | --- |
| CC(Cc1ccc(F)c(F)c1)NCCCc1ccnc(C(F)(F)F)c1 (stereo not shown) [Compound 247] | 349 nM | – | – |
| CC(Cc1ccc(F)c(F)c1)NCCCc1cccc(C(F)(F)F)c1 (stereo not shown) [Compound 250] | 39 nM | 4100 nM | – |
| CC(Cc1ccc(F)cc1)NCCCc1ccc([N+](=O)[O-])c(C(F)(F)F)c1 (stereo not shown) [Compound 251] | 55 nM | 535 nM | – |
| CC(Cc1ccc(F)c(F)c1)NCCCc1ccc2ncsc2c1 (stereo not shown) [Compound 252] | 67 nM | 1580 nM | – |
| CC(Cc1ccc(F)c(F)c1)NCCCc1ccc2c(c1)C(=O)OC2 (stereo not shown) [Compound 253] | 268 nM | – | – |
| CC(Cc1ccc(F)c(F)c1)NCCCc1ccc2c(c1)[nH]c(=O)n2C (stereo not shown) [Compound 254] | 187 nM | – | – |
| CC(Cc1ccc(F)c(F)c1)NCCCc1cccc2ncoc12 (stereo not shown) [Compound 255] | 54 nM | 3370 nM | – |
| CC(Cc1ccc(F)c(F)c1)NCCCc1ccc2ncoc2c1 (stereo not shown) [Compound 256] | 50 nM | 4880 nM | – |
| CC(Cc1ccc(F)c(F)c1)NCCCc1ccc(C(=O)O)cc1 (stereo not shown) [Compound 257] | 6480 nM | > 34700 nM | – |
| CC(Cc1ccc(F)c(F)c1)NCCCc1ccc(OC(C)C)cc1 (stereo not shown) [Compound 259] | 104 nM | 818 nM | – |
| CSc1ccc(CCCNC(C)Cc2ccc(F)c(F)c2)cc1 (stereo not shown) [Compound 261] | 32 nM | 316 nM | – |
| CC(Cc1ccc(F)c(F)c1)NCCCc1ccc(C(C)(C)C)cc1 (stereo not shown) [Compound 264] | 209 nM | 2190 nM | – |
| CC(Cc1ccc(F)c(F)c1)NCCCc1cccc(N)c1 (stereo not shown) [Compound 265] | 202 nM | 5560 nM | – |
| CC(Cc1ccc(F)c(F)c1)NCCCc1cccc(N(C)C)c1 (stereo not shown) [Compound 266] | 171 nM | 2460 nM | – |
| CC(Cc1ccc(F)c(F)c1)NCCCc1cccc(Cl)c1 (stereo not shown) [Compound 267] | 19 nM | 1000 nM | – |
| CC(Cc1ccc(F)c(F)c1)NCCCc1ccccc1Cl (stereo not shown) [Compound 268] | 28 nM | 233 nM | – |
| CC(Cc1ccc(F)c(F)c1)NCCCc1ccc(Cl)cc1Cl (stereo not shown) [Compound 269] | 61 nM | 279 nM | – |
| CC(Cc1ccc(F)c(F)c1)NCCCc1cc(Cl)cc(Cl)c1 (stereo not shown) [Compound 270] | 38 nM | 1500 nM | – |
| CC(Cc1ccc(F)c(F)c1)NCCCc1cccc(Cl)c1Cl (stereo not shown) [Compound 271] | 42 nM | 462 nM | – |
| CC(Cc1ccc(F)c(F)c1)NCCCc1ccc(Cl)c(Cl)c1 (stereo not shown) [Compound 272] | 57 nM | 462 nM | – |
| CC(Cc1ccc(F)c(F)c1)NCCCc1ccc(Cl)c(C(F)(F)F)c1 (stereo not shown) [Compound 273] | 538 nM | 1220 nM | – |
| CC(Cc1ccc(F)c(F)c1)NCCCc1ccc(NS(C)(=O)=O)cc1 (stereo not shown) [Compound 274] | 45 nM | 220 nM | – |
| CC(Cc1ccc(F)cc1)NCCCc1ccc(NS(C)(=O)=O)cc1 (stereo not shown) [Compound 275] | 53 nM | 308 nM | – |
| CC(=O)Nc1ccc(CCCNC(C)Cc2ccc(Br)cc2)cc1 (stereo not shown) [Compound 276] | 24 nM | 3430 nM | – |

| SMILES | Ki (VMAT2) | Ki (hERG channel; [3]) | other results |
| --- | --- | --- | --- |
| CC(Cc1c[nH]c2ccccc12)NCCCc1ccc(F)cc1 (stereo not shown) [Compound 277] | – | 732 nM | Ki (VMAT2; read-out: VMAT2 (rat) Inhibition: Mean Ki, [3H]DA uptake, rat vesicular preparation, mean of n>=3 unless N given): 66 nM |
| CC(Cc1ccc(F)cc1)NCCCc1cccnc1 (stereo not shown) [Compound 278] | 98 nM | 3980 nM | – |
| CC(Cc1ccc(F)cc1)NCCCc1ccccn1 (stereo not shown) [Compound 279] | 200 nM | 2400 nM | – |
| CC(Cc1ccc(F)c(F)c1)NCCCc1cccc(-c2ccnn2C)c1 (stereo not shown) [Compound 281] | 51 nM | 592 nM | – |
| CC(Cc1ccc(F)c(F)c1)NCCCc1ccccc1-c1cccnc1 (stereo not shown) [Compound 282] | 88 nM | 364 nM | – |
| CC(Cc1ccc(F)c(F)c1)NCCCc1cccc(-c2cccnc2)c1 (stereo not shown) [Compound 283] | 41 nM | 182 nM | – |
| O=C(O)C(Cc1ccc(F)cc1)NCCCc1ccc(Br)cc1 (stereo not shown) [Compound 286] | 3130 nM | – | – |
| NC(Cc1cn(Cc2ccccc2)cn1)C(=O)OCC(Cc1ccc(F)cc1)NCCCc1ccc(Br)cc1 (stereo not shown) [Compound 287] | 533 nM | – | – |
| CC(Cc1ccccc1)N(CCCc1ccc(O)cc1)C(=O)OC(C)(C)C (stereo not shown) [Compound 288] | > 100000 nM | – | – |
| CC(Cc1ccccc1)N(CCCc1ccc([N+](=O)[O-])cc1)C(=O)OCc1ccccc1 (stereo not shown) [Compound 289] | 2970 nM | – | – |
| CC(Cc1ccccc1)N(CCCc1ccc(I)cc1)C(=O)OCc1ccccc1 (stereo not shown) [Compound 290] | – | – | Ki (VMAT2; [4]): 4800 nM |
| CC(Cc1ccccc1)N(CCCc1ccc(N)cc1)C(=O)OCc1ccccc1 (stereo not shown) [Compound 291] | – | – | Ki (VMAT2; [4]): 3100 nM |
| C[C@H](Cc1ccccc1)ONCCc1ccccc1 [Compound 296] | 20000 nM | – | – |
| CC(Cc1ccc(F)c(F)c1)NCCCc1ccc(C(N)=O)c(Cl)c1 (stereo not shown) [Compound 297] | 21 nM | – | CLint scaled at 0.08 µM [1]: < 17 mL/min/kg; Ki (hERG channel; Table 4, mean, minimally n = 3): 5020 nM; Ki [2]: 5820 nM |
| CC(Cc1ccc(F)cc1)NCCCc1ccc(C(N)=O)cc1 (stereo not shown) [Compound 298] | – | – | CLint scaled at 0.08 µM [1]: 18 mL/min/kg; Ki (hERG channel; Table 4, mean, minimally n = 3): 12400 nM; Ki (VMAT2; [5]): 16 nM; Ki [2]: 3980 nM |
| CC(Cc1ccc(F)c(F)c1)NCCCc1ccc(C(N)=O)c(F)c1 (stereo not shown) [Compound 299] | 29 nM | – | CLint scaled at 0.08 µM [1]: 19 mL/min/kg; Ki (hERG channel; Table 4, mean, minimally n = 3): 12100 nM; Ki [2]: 4210 nM |
| CC(Cc1cc(F)cc(F)c1)NCCCc1ccc(C(N)=O)cc1 (stereo not shown) [Compound 300] | – | – | CLint scaled at 0.08 µM [1]: 21 mL/min/kg; Ki (hERG channel; Table 4, mean, minimally n = 3): 8100 nM; Ki (VMAT2; [5]): 6 nM; Ki [2]: 1570 nM |
| CC(Cc1cccc(C(N)=O)c1)NCCCc1ccc(F)cc1 (stereo not shown) [Compound 301] | – | – | CLint scaled at 0.08 µM [1]: 22 mL/min/kg; Ki (hERG channel; Table 4, mean, minimally n = 3): 1310 nM; Ki (VMAT2; [5]): 43 nM; Ki [2]: 6070 nM |
| CC(Cc1ccc(NC(N)=O)cc1)NCCCc1ccc(F)cc1 (stereo not shown) [Compound 302] | 34 nM | – | CLint scaled at 0.08 µM [1]: 30 mL/min/kg; Ki (hERG channel; Table 4, mean, minimally n = 3): 7110 nM; Ki [2]: 3130 nM |
| CC(Cc1ccc2[nH]cnc2c1)NCCCc1ccc(F)cc1 (stereo not shown) [Compound 303] | 22 nM | – | CLint scaled at 0.08 µM [1]: 40 mL/min/kg; Ki (hERG channel; Table 4, mean, minimally n = 3): 2900 nM; Ki [2]: 4770 nM |
| CC(Cc1ccc(C(N)=O)cc1)NCCCc1ccc(F)cc1 (stereo not shown) [Compound 304] | – | – | CLint scaled at 0.08 µM [1]: 41 mL/min/kg; Ki (hERG channel; Table 4, mean, minimally n = 3): 1610 nM; Ki (VMAT2; [5]): 31 nM; Ki [2]: 5570 nM |
| CC(Cc1ccc2nccnc2c1)NCCCc1ccc(S(N)(=O)=O)cc1 (stereo not shown) [Compound 305] | 46 nM | – | CLint scaled at 0.08 µM [1]: 43 mL/min/kg; Ki (hERG channel; Table 4, mean, minimally n = 3): 4390 nM; Ki [2]: 20500 nM |
